Laboratory results published in patent US10821142B2, “Cancer treatment and diagnosis” (priority 2015, dated 2020).

Tests used:
IRF3/NF-κB translocation = assay: Immunofluorescence of IRF3/NF-κB translocation in FHC treated with DMH/AOM; assay type: cell-based, human; conditions: 3 mM for 48 hours
Experimental: FIGS. 8A-8C show fluorescence microscopy analysis (related to FIG. 1) of DAPI staining in WT and SKO MEFs treated with 3 mM of AOM of 3 mM of DMH (FIG. 8A) and anti-dsDNA staining and the ration of cytoplasm to nucleus (FIG. 8B) in Human normal colon epithelial cells (FHC) treated with 3 mM of AOM or 3 mM of DMH for 48 hours. (FIG. 8C) Immunofluorescence microscopy analysis of FHC treated with AOM and DMH sane as FIG. 8A for 48 hours using p65 or IRF3 antibody. Images shown at original magnification, 160×.
To start determining the mechanisms underlining the cause of DMH/AOM-induced STING activity, MEF or FHC cells were treated with these drugs and observed by two different approaches, DAPI staining and immunofluorescence (IF) using anti-dsDNA antibody, the leakage of DNA into the cytosol (FIGS. 8A and 8B). Cytosolic DNA activates STING and stimulates STING/TBK1 trafficking via autophagy to endosomal regions harboring the transcription factors IRF3 and NF-κB, which triggers cytokine production. […]
Cells were cultured and treated in their appropriate media on Lab-Tek II chamber slides. […] Immunostaining was performed with rabbit-anti-STING polyclonal followed by fluorescence conjugated secondary antibodies (FITC-goat-anti-rabbit) (Invitrogen). […]

[1] = tested on: STING-dependent genes in murine embryonic fibroblasts; assay: Gene array and qPCR of WT and SKO MEFs treated with AOM or DMH; assay type: cell-based, mouse; conditions: AOM 0.14 mM for 8 hours
Experimental: (§1) FIGS. 1A-1E show activation of STING-dependent genes by azoxymethane (AOM) (FIG. 1A) Gene array analysis of Wild type (WT) and STING deficient (SKO) mouse embryonic fibroblasts (MEFs) treated with AOM at 0.14 mM for 8 hours (Left) and 1,2-dimethylhydrazine (DMH) at 1 mM for 8 hours (Right). Highest variable genes are shown. Rows represent individual genes; columns represent individual samples. Grayscale indicates transcript levels below, equal to, or above the mean. Scale represents the intensity of gene expression (log 2 scale ranges between −2.4 and 2.4). (FIG. 1B) qPCR analysis of Cxcl10 and Ifit3 in MEFs treated with AOM and DMH same as FIG. 1A. (FIG. 1C) qPCR analysis of Cxcl10 in Human epithelial cell (FHC) treated with AOM and DMH at 1 mM for 24 hours. (FIG. 1D) FHC cells were transfected with STING or control siRNA for 72 hours followed by AOM and DMH treatment same as FIG. 1C, and were then subjected to Cxcl0 mRNA expression (Left). STING expression level after siRNA treatment was determined by qPCR (Right). […] (FIG. 1E) STING Immunohistochemistry staining of the colon tissue from WT and SKO mice (Left) and Human. All images were shown at original magnification, 200×.
Towards these objectives, the AOM/DSS model, as described above, was utilized and analyzed the effects of AOM and precursor DMH upon STING signaling. Principally, wild type (WT) or STING-deficient (SKO) murine embryonic fibroblasts (MEF) were treated in vitro with DMH or metabolite AOM for 8 hours and microarray analysis performed to analyze the consequences to gene expression. […] The observed STING-dependent gene expression was confirmed following RT-PCR analysis of select mRNA such as Cxcl10 and IFIT3 (FIG. 1B). […] Thus, the DNA damaging agent DMH/AOM can invoke STING-dependent signaling.
Total RNA was isolated from cells or tissues with RNeasy Mini kit (74104, Qiagen, Valencia, Calif.). RNA quality was analyzed by Bionalyzer RNA 6000 Nano (Agilent Technologies, Santa Clara Calif.). […]

colon = conditions: mice; single injection of AOM followed by DSS via drinking water; cited from earlier work
[2] = tested on: STING-dependent genes in FHC cells; assay: qPCR of Cxcl10 in human colon epithelial cells (FHC) treated with AOM; assay type: cell-based; conditions: FHC treated with RNAi to STING
Experimental: as §1
Towards these objectives, the AOM/DSS model, as described above, was utilized and analyzed the effects of AOM and precursor DMH upon STING signaling. […]

type I IFN production = assay: IFNB induction (qPCR) in normal and colon cancer cells treated with AOM or DMH; assay type: cell-based, human; conditions: 15 mM for 20 hours
Experimental: FIG. 22. Normal and colon cancer cells were treated with AOM or DMH at 15 mM for 20 hours. IFNB induction was analyzed by qPCR. STING, IRF3 and NF-kB translocation was examined: +, translocation; −, no translocation.
The question arises as to why the STING-signaling pathway may be inhibited in colon adenocarcinoma. Recently, it was shown that STING-deficient cells and mice are sensitive to AOM-induced DNA damage. In this situation, the STING pathway may play a role in the DNA-damage response pathway, to induce the production of cytokines which facilitate tissue repair or damaged cell removal (Chatzinikolaou et al., 2014; Kidane et al., 2014; Lord and Ashworth, 2012). As such, innate immune induction of CA cells in response to DNA damaging agents was examined. […] Thus, the inhibition of the STING pathway may enable DNA damaged cells, harboring mutations, to escape part of the DNA damage response and the immune surveillance machinery to progress into a tumorigenic state.

CN=[N+](C)[O-] [AOM, Azoxymethane]
translocation of IRF3/NF-κB (IRF3/NF-κB translocation): could instigate the translocation of IRF3/NF-κB
mRNA production of innate immune related genes ([1]; MEFs lacking STING (SKO)): marked decrease in the production of the same genes
mRNA production of innate immune related genes ([1]; WT MEFs): activated mRNA production of a wide array of innate immune related genes
colon cancer induced (colon): ~100%
production of Cxcl10 [2]: similarly reduced
production of type I IFN (type I IFN production; CA cells with defective STING activated IRF3 or NF-kB activity): unable to generate type I IFN
production of type I IFN (type I IFN production; normal colon epithelial (CCD841) and LS123): able to induce the production of type I IFN
